Laboratory results taken from publication PMC9785280, “Synthesis, Antiproliferative Evaluation and QSAR Analysis of Novel Halogen- and Amidino-Substituted Benzothiazoles and Benzimidazoles” (International Journal of Molecular Sciences, 2022).

How the values were obtained:
[1] = test system: MDCK1 (Madin–Darby canine kidney) cells; test: MTT antiproliferative assay, non-tumor MDCK1 cells; format: cell-based; conditions: Canis lupus familiaris, MDCK1, 72 h, mean ± SD of three independent experiments, normal cells
Summary of the method: (§1)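 72 h growth inhibition; cpds 10^−7–10^−4 M; DMEM/10% FBS (adherent) or RPMI/10% FBS (suspension), 37 °C/5% CO2; MTT 4 h; formazan in DMSO (adherent) or 10% SDS/0.01 M HCl (suspension); OD 595 nm; GI50 via variable-slope fit.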

human fibroblasts (BJ) = test: MTT antiproliferative assay, normal BJ fibroblasts; format: cell-based; conditions: Homo sapiens, Fibroblast, 72 h, MTT, mean ± SD of three independent experiments; normal cells
Summary of the method: as §1

[2] = test system: HeLa (cervical adenocarcinoma) cells; test: MTT antiproliferative assay, HeLa; format: cell-based; conditions: Homo sapiens, 72 h, mean ± SD of three independent experiments
Summary of the method: as §1

[3] = test system: CaCo-2 (colon adenocarcinoma) cells; test: MTT antiproliferative assay, CaCo-2; format: cell-based, human; conditions: for IC50: Homo sapiens, Caco-2, 72 h, MTT, mean ± SD of three independent experiments
Summary of the method: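 CaCo-2 cells, plated at 2 × 10^4 cells/mL in DMEM with 10 % FBS at 37 °C/5% CO2, were treated 24 h later with five 10-fold dilutions (10^−7 to 10^−4 M) for 72 h. Viability was measured by MTT (4 h, formazan dissolved in DMSO, OD 595 nm) against background and untreated controls. GI50 came from log-concentration versus percent-inhibition fits.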

[4] = test system: HuT78 (T-cell lymphoma) cells; test: MTT antiproliferative assay, HuT78; format: cell-based, human; conditions: for IC50: Homo sapiens, HuT78, 72 h, 72 h, MTT, mean ± SD of three independent experiments; for SI (BJ) HuT78: SI = IC50 BJ / IC50 HuT78; for SI (MDCK) HuT78: SI = IC50 MDCK1 / IC50 HuT78
Summary of the method: as §1

[5] = test system: SW620 (colorectal adenocarcinoma, metastatic) cells; test: MTT antiproliferative assay, SW620; format: cell-based, human; conditions: Homo sapiens, SW-620; 72 h, MTT, mean ± SD of three independent experiments; read-out: IC50 (µM) SW620
Method: (§2) The growth inhibition activity was assessed according to the slightly modified procedure performed at the National Cancer Institute, Developmental Therapeutics Program.
(§3) Examined compounds were dissolved in DMSO (1 × 10^−2 M). The experiments were carried out on seven human tumor cell lines and two normal cell lines. The following cell lines were used: HeLa (human cervical adenocarcinoma; purchased from ATCC), CaCo-2 (human colorectal adenocarcinoma), HuT78 (T-cell lymphoma), THP-1 (acute monocytic leukemia), SW620 (colorectal adenocarcinoma, metastatic), MDA-MB-231 (human breast adenocarcinoma), HL60 (promyelocytic leukemia cell line), foreskin fibroblast cells (BJ) and MDCK1 (Madine–Darby canine kidney fibroblast like cells). MDCK1 cells were used between 24 and 26 passages.
(§4) Adherent cells were cultured in the Dulbecco’s modified Eagle medium—DMEM (Gibco, EU) supplemented with 10 % heat-inactivated fetal bovine serum (FBS, Gibco, EU), 2 mM glutamine, and 100 U/0.1 mg penicillin/streptomycin. Cells on suspension were cultured in RPMI 1640 (Gibco, EU) medium supplemented with 10 % FBS (Gibco, EU), 2 mM glutamine, 1 mM sodium pyruvate, 10 mM HEPES. Cells were grown in humidified atmosphere under the conditions of 37 °C/5% of CO2 gas in the CO2 incubator (IGO 150 CELLlife^TM, JOUAN, Thermo Fisher Scientific, Waltham, MA, USA). A erythrosin B (Sigma-Aldrich, St. Louis, MO, USA) dye exclusion method was used to assess cell viability before plating.
(§5) Adherent cells (HeLa, CaCo-2, MCF-7 and MDCK-1) were plated in 96-well flat bottom plates (Greiner, Frickenhausen, Austria) at a concentration of 2 × 10^4 cells/mL. Suspension cells (THP-1 and HuT78) were plated in 96-well microtiter plates (Sarstead, Newton, USA) at a concentration of 1 × 10^5 cells/mL. Twenty-four hours later, cells were treated with test agents in […] 10-fold dilutions ([…] to 10^−4 M) and incubated for further 72 h. Working dilutions were freshly prepared on the day of testing. The solvent was also tested for eventual inhibitory activity by adjusting its concentration to be the same as in working concentrations. After 72 h of incubation, the cell growth rate was evaluated by performing the MTT assay, which detects dehydrogenase activity in viable cells. For this purpose, upon completion of the incubation period, growth medium was discarded and 50 μL of MTT was added to each well at a concentration of 5 mg/mL. After four hours of incubation at 37 °C, water insoluble MTT-formazan crystals were dissolved in 150 μL of dimethyl-sulfoxide (DMSO) for adherent cells, and in 10 % SDS with 0.01 M/L HCl for cells grown in suspension. The absorbance (OD, optical density) was measured on a microplate reader (iMark, BIO RAD, Hercules, CA, USA) at 595 nm.
(§6) Percent of life cells was calculated as follows: % = OD (sample)–OD (background)/OD (control)–OD (background) × 100.
(§7) Optical density (OD) of background for adherent cells is the OD of MTT solution and DMSO; OD (background) for suspension cells is OD of the culture medium with MTT and 10% SDS with 0.01 M/L HCl; OD (control) is the OD of the cells growth without tested compounds.
(§8) Calculation of GI50 value curves and QC analysis is performed by using the Excel tools and GraphPadPrism software (La Jolla, CA), v. 5.03. Briefly, individual concentration effect curves are generated by plotting the logarithm of the concentration of tested compounds(X) vs. corresponding percent inhibition values (Y) using least squares fit. The best fit GI50 values are calculated using Log (inhibitor) versus normalized response—Variable slope equation, where Y Ľ 100/(1 ţ 10 ((LogIC50 _ X) * HillSlope)). QC criteria parameters (Z0, S:B, R2, HillSlope) were checked for every GI50 curve.

[6] = test system: MDA-MB-231 (human breast adenocarcinoma) cells; test: MTT antiproliferative assay, MDA-MB-231; format: cell-based; conditions: Homo sapiens, MDA-MB-231; 72 h, MTT, mean ± SD of three independent experiments
Method: as §2, §3, §4, §5, §6, §7, §8

[7] = test system: HL60 (promyelocytic leukemia) cells; test: MTT antiproliferative assay, HL60; format: cell-based, human; conditions: for IC50: Homo sapiens, HL-60, 72 h, MTT, mean ± SD of three independent experiments
Method: as §2, §3, §4, §5, §6, §7, §8

[8] = test system: THP1 (human monocytic leukemia) cells; test: MTT antiproliferative assay, THP1; format: cell-based; conditions: for IC50: Homo sapiens, THP-1, 72 h, MTT, mean ± SD of three independent experiments
Method: as §2, §3, §4, §5, §6, §7, §8

Structure (SMILES)	IC50 [1]	IC50 (human fibroblasts (BJ))	IC50 [2]	IC50 [3]	IC50 [4]	SI (BJ) HuT78 [4]	melting point	SI (MDCK) HuT78 [4]	IC50 [5]	IC50 [6]	IC50 [7]	IC50 [8]	SI (BJ) CaCo-2 ([3]; SI = IC50 BJ / IC50 CaCo-2)	SI (MDCK) CaCo-2 ([3]; SI = IC50 MDCK1 / IC50 CaCo-2)	SI (BJ) HL60 ([7]; SI = IC50 BJ / IC50 HL60)	SI (MDCK) HL60 ([7]; SI = IC50 MDCK1 / IC50 HL60)	SI (BJ) THP1 ([8]; SI = IC50 BJ / IC50 THP1)	SI (MDCK) THP1 ([8]; SI = IC50 MDCK1 / IC50 THP1)
COc1cc(-c2nc3ccccc3s2)ccc1OCc1cn(Cc2ccccc2)nn1 [26c, 2-(3-Methoxy-4-((1-benzyl-1H-1,2,3-triazol-4-yl)methoxy)phenyl)benzothiazole]	8.5 ± 6.4 µM	76.7 ± 27.7 µM	23.3 ± 15.3 µM	> 100 µM	23.7 ± 5.2 µM	3.24	170 to 173 °C											
Cl.O=C(COc1ccc(-c2nc3ccc(C4=NCCN4)cc3s2)cc1)c1ccccc1 [34a, 2-(4-(2-Oxo-2-phenylethoxy)phenyl)-6-(4,5-dihydro-1H-imidazol-2-yl)benzothiazole hydrochloride]	2.8 ± 0.3 µM	3.9 ± 0.3 µM	3.4 ± 0.2 µM	4 ± 0.2 µM	2.2 ± 0.3 µM		> 250 °C											
Cl.O=C(COc1ccc(-c2nc3ccc(C4=NCCN4)cc3s2)cc1F)c1ccccc1 [34b, 2-(3-Fluoro-4-(2-oxo-2-phenylethoxy)phenyl)-6-(4,5-dihydro-1H-imidazol-2-yl)benzothiazole hydrochloride]	2.2 ± 0.3 µM	11.2 ± 6 µM	4.5 ± 4.3 µM	7 ± 5.4 µM	2.1 ± 0.2 µM		> 240 °C											
COc1cc(-c2nc3ccc(C4=NCCN4)cc3s2)ccc1OCC(=O)c1ccccc1.Cl [34c, 2-(3-Methoxy-4-(2-oxo-2-phenylethoxy)phenyl)-6-(4,5-dihydro-1H-imidazol-2-yl)benzothiazole hydrochloride]	2.1 ± 0.3 µM	4 ± 0.1 µM	3.1 ± 0.2 µM	6.3 ± 3 µM	1.8 ± 0.7 µM		> 240 °C											
Cl.c1ccc(COc2ccc(-c3nc4ccc(C5=NCCN5)cc4s3)cc2)nc1 [35a, 2-(4-(Pyridin-2-ylmethoxy)phenyl)-6-(4,5-dihydro-1H-imidazol-2-yl)benzothiazole hydrochloride]	2.7 ± 0.3 µM	3.2 ± 0.3 µM	18.9 ± 3.6 µM	26.7 ± 2.1 µM	1.4 ± 0.2 µM		> 250 °C											
COc1cc(-c2nc3ccc(C4=NCCN4)cc3s2)ccc1OCc1ccccn1.Cl [35c, 2-(3-Methoxy-4-(pyridin-2-ylmethoxy)phenyl)-6-(4,5-dihydro-1H-imidazol-2-yl)benzothiazole hydrochloride]	7.5 ± 3.5 µM	6.7 ± 4.9 µM	21.8 ± 5.5 µM	18.2 ± 3.3 µM	6.2 ± 2.7 µM		219 to 223 °C											
Cl.Fc1cc(-c2nc3ccc(C4=NCCN4)cc3s2)ccc1OCc1c[nH]nn1 [36b, 2-(3-Fluoro-4-((1H-1,2,3-triazol-4-yl)methoxy)phenyl)-6-(4,5-dihydro-1H-imidazol-2-yl)benzothiazole hydrochloride]	25.2 ± 1.3 µM	32.6 ± 3.4 µM	30 ± 1 µM	38.3 ± 1.2 µM	1.8 ± 0.4 µM		234 to 237 °C	14										
COc1cc(-c2nc3ccc(C4=NCCN4)cc3s2)ccc1OCc1c[nH]nn1.Cl [36c, 2-(3-Methoxy-4-((1H-1,2,3-triazol-4-yl)methoxy)phenyl)-6-(4,5-dihydro-1H-imidazol-2-yl)benzothiazole hydrochloride]	> 100 µM	> 100 µM	> 100 µM	> 100 µM	1.6 ± 0.8 µM			62.5	> 100 µM	> 100 µM	> 100 µM	> 100 µM						
Cl.c1ccc(Cn2cc(COc3ccc(-c4nc5ccc(C6=NCCN6)cc5s4)cc3)nn2)cc1 [37a, 2-(4-((1-Benzyl-1H-1,2,3-triazol-4-yl)methoxy)phenyl)-6-(4,5-dihydro-1H-imidazol-2-yl)benzothiazole hydrochloride]	1.5 ± 0.3 µM	4.3 ± 3.6 µM	3.6 ± 0.1 µM	3.7 ± 1.5 µM	1.6 ± 0.8 µM		153 to 156 °C											
Cl.Fc1cc(-c2nc3ccc(C4=NCCN4)cc3s2)ccc1OCc1cn(Cc2ccccc2)nn1 [37b, 2-(3-Fluoro-4-((1-benzyl-1H-1,2,3-triazol-4-yl)methoxy)phenyl)-6-(4,5-dihydro-1H-imidazol-2-yl)benzothiazole hydrochloride]	2.4 ± 0.3 µM	5.3 ± 2.9 µM	4 ± 0.4 µM	6.1 ± 2.7 µM	2.1 ± 0.2 µM	2.52	> 240 °C											
COc1cc(-c2nc3ccc(C4=NCCN4)cc3s2)ccc1OCc1cn(Cc2ccccc2)nn1.Cl [37c, 2-(3-Methoxy-4-((1-benzyl-1H-1,2,3-triazol-4-yl)methoxy)phenyl)-6-(4,5-dihydro-1H-imidazol-2-yl)benzothiazole hydrochloride]	2.6 ± 0.1 µM	4.8 ± 3.5 µM	3.4 ± 0.2 µM	4.5 ± 2.7 µM	3 ± 1 µM	1.6	> 240 °C											
O=C(COc1ccc(-c2nc3ccc(C4=NCCCN4)cc3s2)cc1F)c1ccccc1 [38b]	26.6 ± 3.1 µM	32.2 ± 2.8 µM	22.1 ± 1.2 µM	19.4 ± 4.7 µM	4 ± 0.9 µM	8.05		6.65	30.5 ± 9.2 µM	42.4 ± 7.2 µM	15.8 ± 2.3 µM	14.7 ± 4.1 µM	1.66	1.37	2.04	1.68	2.19	1.8
